Marks after values point to notes of the source that are not given here.
Experiments:
[1] = system: bone marrow cells of normal persons; experiment: Osteoclast formation induced by 1α,25-dihydroxyvitamin D3 in normal human bone marrow cultures; format: cell-based; conditions: for osteoclast formation (average number of cells ± S.D.): normal marrow
From the text: Mononuclear cells were fractionated from bone marrow cells of healthy normal persons according to a method of Kurihara et al. (Endocrinology, vol. 126, 2733-2741 (1990)). Briefly, bone marrow cells were obtained from normal persons, a mononuclear cell fraction was collected by Hypaque-Ficoll density gradient centrifugation, the cell fraction was washed with α-Minimal Essential Media (α-MEM) 3 times, and the cells dispersed in α-MEM containing 10% fetal bovine serum. This mononuclear cell suspension was seeded in 100-mm tissue culture plates, the culture plate was kept for 90 minutes at 37° C. in a 4% CO2-air atmosphere, and the non-adherent cells were collected. The non-adherent mononuclear cells were dispersed into α-MEM culture medium containing 20% horse serum at 10^6 cells/ml, the cell suspension was seeded into 96-well multi plates at 100 μl/well. The capacity of the compound 11 (23S isomer) to inhibit osteoclast formation induced by 1α,25-dihydroxyvitamin D3 was evaluated as follows: Various concentrations of 1α,25-dihydroxyvitamin D3, various concentrations of compound 11 (23S isomer) or a combination of 10^−8 M 1α,25-dihydroxyvitamin D3 solution and various concentrations of compound 11 (23S isomer) solution were added to each well. The culture medium was replaced twice weekly and the cultures continued for 3 weeks at 37° C. in an atmosphere of 4% CO2-air. Osteoclasts that formed were identified by their capacity to bind the 23C6 antibody. The nuclei were counter stained with methyl green. Cells that reacted with the 23C6 antibody and had 3 or more nuclei were scored as osteoclasts.

[2] = system: bone marrow cells of Paget's disease of bone patients; experiment: Osteoclast formation induced by 1α,25-dihydroxyvitamin D3 in bone marrow cultures from Paget's disease of bone patients; format: cell-based, human; conditions: for osteoclast formation (average number of cells ± S.D.): Paget's marrow
From the text: Mononuclear cells were fractionated from bone marrow cells of healthy normal persons according to a method of Kurihara et al. (Endocrinology, vol. 126, 2733-2741 (1990)). Briefly, bone marrow cells were obtained from normal persons, a mononuclear cell fraction was collected by Hypaque-Ficoll density gradient centrifugation, the cell fraction was washed with α-Minimal Essential Media (α-MEM) 3 times, and the cells dispersed in α-MEM containing 10% fetal bovine serum. This mononuclear cell suspension was seeded in 100-mm tissue culture plates, the culture plate was kept for 90 minutes at 37° C. in a 4% CO2-air atmosphere, and the non-adherent cells were collected. The non-adherent mononuclear cells were dispersed into α-MEM culture medium containing 20% horse serum at 10^6 cells/ml, the cell suspension was seeded into 96-well multi plates at 100 μl/well.
The capacity of the compound 11 (23S isomer) to inhibit osteoclast formation induced by 1α,25-dihydroxyvitamin D3 was evaluated as follows: Various concentrations of 1α,25-dihydroxyvitamin D3, various concentrations of compound 11 ([…]) solution were added to each well. The culture medium was replaced twice weekly and the cultures continued for 3 weeks at 37° C. in an atmosphere of 4% CO2-air. Osteoclasts that formed were identified by their capacity to bind the 23C6 antibody. The nuclei were counter stained with methyl green. Cells that reacted with the 23C6 antibody and had 3 or more nuclei were scored as osteoclasts.
Bone marrow cells were obtained from involved bones of patients with Paget's disease of bone and processed and cultured as described above for normal bone cells. The cultures were treated in an identical manner with 1α,25-dihydroxyvitamin D3 and/or compound 11 (23S isomer) as described in Example 1.
Bone marrow cultures were performed as described in Example 1, with the exception that different types of vitamin D antagonists were added to at varying concentrations to bone marrow cultures stimulated with 1α,25-dihydroxyvitamin D3. The bone marrow cells were taken from involved bones of patients with Paget's disease of bone and the cultures were performed as described in Example 2. There are two diastereoisomers, based on the asymmetric carbon at the 23 position, in compounds 13 and 16. The isomer having the shorter retention time on reverse phase HPLC analysis was the more polar isomer and the isomer having the longer retention time was the less polar isomer.

vitamin D deficient rats = experiment: Bone resorption (serum calcium) induced by 1α,25-dihydroxyvitamin D3 in vitamin D deficient rats; format: in vivo, Wistar rats
Description: Four-week-old male Wistar rats purchased from Japan SLC (Shizuoka, in Japan) were used. The animals were kept in wire-net cages (three animals in a cage) and raised for 7 weeks with free access to a vitamin D-deficient diet (Ca, 0.0036%; P, 0.3%; Harlan Taklad Research Diet, Madison, Wis., U.S.A.) and drinking water (well water treated with hypochlorite of […]±0.2 ppm). Temperature was kept at 23±1° C. and the humidity at 55±10%. Five animals were used for each experimental group. The control animals received intravenously administered solvent (5% ethanol-0.1% Triton X-100-physiological saline solution), and the experimental animals were intravenously administered 1α,25-dihydroxyvitamin D3 at a dose of 0.25 μg/kg. For animals receiving vitamin D derivatives, compound 11 (23S isomer) was administered intravenously at a dose of 2 μg/kg, 10 μg/kg or 50 μg/kg, or the compound 11 (23S isomer) with or without 1α,25-dihydroxyvitamin D3 at a dose of 0.25 μg/kg. The volume was 2 ml/kg for each animal. 24 hours after administration, a blood sample was taken out from abdominal descending aorta under ether anesthesia, the serum was collected according to conventional methods, and the calcium concentration in the serum was measured. The calcium concentrations were measured according to OCPC-method (Am. J. Clin. Pathol., vol. 45, 290-296 (1966)) with an autoanalyzer (type 7070, manufactured by Hitachi Seisakusho).

C=C1CC(CC(C)C2CCC3C(=CC=C4CC(O)CC(O)C4=C)CCCC32C)OC1=O [compound 11 (23S isomer), (23S)-25-Dehydro-1α,25-Dihydroxyvitamin D3-26, 23-Lactone]
osteoclast formation (average number of cells ± S.D.) ([1]; 10^−8 M 1α,25-dihydroxyvitamin D3 + compound 10^−6 M): 20 ± 7 cells
osteoclast formation (average number of cells ± S.D.) ([1]; 10^−8 M 1α,25-dihydroxyvitamin D3 + compound 10^−7 M): 33 ± 16 cells
osteoclast formation (average number of cells ± S.D.) ([1]; 10^−8 M 1α,25-dihydroxyvitamin D3 + compound 10^−8 M): 44 ± 8 cells
osteoclast formation (average number of cells ± S.D.) ([1]; 10^−8 M 1α,25-dihydroxyvitamin D3 + compound 10^−9 M): 55 ± 12 cells
osteoclast formation (average number of cells ± S.D.) ([1]; 10^−8 M 1α,25-dihydroxyvitamin D3 + compound 10^−10 M): 80 ± 5 cells
osteoclast formation (average number of cells ± S.D.) ([1]; 10^−8 M 1α,25-dihydroxyvitamin D3 + compound 10^−11 M): 85 ± 8 cells
osteoclast formation (average number of cells ± S.D.) ([1]; compound alone, 10^−6 M, 3 weeks): 0 ± 0 cells
osteoclast formation (average number of cells ± S.D.) ([1]; compound alone, 10^−7 M, 3 weeks): 0 ± 1 cells
osteoclast formation (average number of cells ± S.D.) ([1]; compound alone, 10^−8 M, 3 weeks): 3 ± 2 cells
osteoclast formation (average number of cells ± S.D.) ([1]; compound alone, 10^−9 M, 3 weeks): 5 ± 1 cells
osteoclast formation (average number of cells ± S.D.) ([1]; compound alone, 10^−10 M, 3 weeks): 9 ± 5 cells
osteoclast formation (average number of cells ± S.D.) ([1]; compound alone, 10^−11 M, 3 weeks): 17 ± 4 cells
induction of osteoclast formation by the compound alone (in words) ([1]; normal marrow cultures): did not induce osteoclast formation
osteoclast formation (average number of cells ± S.D.) ([2]; 10^−10 M 1α,25-dihydroxyvitamin D3 + compound 10^−6 M): 1 ± 1 cells
osteoclast formation (average number of cells ± S.D.) ([2]; 10^−10 M 1α,25-dihydroxyvitamin D3 + compound 10^−7 M, listed as compound 11 (235 isomer)): 14 ± 1 cells
osteoclast formation (average number of cells ± S.D.) ([2]; 10^−10 M 1α,25-dihydroxyvitamin D3 + compound 10^−8 M, listed as compound 11 (235 isomer)): 63 ± 5 cells
osteoclast formation (average number of cells ± S.D.) ([2]; 10^−10 M 1α,25-dihydroxyvitamin D3 + compound 10^−9 M): 125 ± 5 cells
osteoclast formation (average number of cells ± S.D.) ([2]; 10^−10 M 1α,25-dihydroxyvitamin D3 + compound 10^−10 M): 155 ± 6 cells
osteoclast formation (average number of cells ± S.D.) ([2]; 10^−10 M 1α,25-dihydroxyvitamin D3 + compound 10^−11 M): 170 ± 13 cells
induction of osteoclast formation by the compound alone (in words) ([2]; Paget's marrow cultures): did not induce osteoclast formation
osteoclast formation (average number of cells ± S.D.) ([2]; compound alone, 10^−6 M): 1 ± 1 cells
osteoclast formation (average number of cells ± S.D.) ([2]; compound alone, 10^−7 M): 8 ± 2 cells
osteoclast formation (average number of cells ± S.D.) ([2]; compound alone, 10^−8 M): 9 ± 3 cells
osteoclast formation (average number of cells ± S.D.) ([2]; compound alone, 10^−9 M): 16 ± 2 cells
osteoclast formation (average number of cells ± S.D.) ([2]; compound alone, 10^−10 M): 20 ± 4 cells
osteoclast formation (average number of cells ± S.D.) ([2]; compound alone, 10^−11 M): 29 ± 5 cells
effect on basal osteoclast formation (in words) ([2]; compound alone, Paget's marrow cultures): inhibited basal osteoclast formation
serum Ca concentration (vitamin D deficient rats; 0.25 μg/kg 1α,25-dihydroxyvitamin D3 + compound 2 μg/kg intravenously, 24 hours): 5.31 ± 0.22 mg/100 ml serum
serum Ca concentration (vitamin D deficient rats; 0.25 μg/kg 1α,25-dihydroxyvitamin D3 + compound 10 μg/kg intravenously, 24 hours): 4.97 ± 0.18^a mg/100 ml serum
serum Ca concentration (vitamin D deficient rats; 0.25 μg/kg 1α,25-dihydroxyvitamin D3 + compound 50 μg/kg intravenously, 24 hours): 4.72 ± 0.21^b mg/100 ml serum
bone resorption induced by 1α,25-dihydroxyvitamin D3 (in words) (vitamin D deficient rats; 0.25 μg/kg 1α,25-dihydroxyvitamin D3 simultaneously with 2, 10 or 50 μg/kg compound): suppressed
serum Ca concentration (vitamin D deficient rats; compound alone, 2 μg/kg intravenously, 24 hours after administration): 4.61 ± 0.12 mg/100 ml serum
serum Ca concentration (vitamin D deficient rats; compound alone, 10 μg/kg intravenously, 24 hours after administration): 4.67 ± 0.11 mg/100 ml serum
serum Ca concentration (vitamin D deficient rats; compound alone, 50 μg/kg intravenously, 24 hours after administration): 4.65 ± 0.18 mg/100 ml serum
serum calcium concentration after compound alone (in words) (vitamin D deficient rats; even at a dose of 50 μg/kg, 24 hours after administration): increased serum calcium concentrations were not observed
